According to patent US10927105B1 (Lundbeck La Jolla Research Center, Inc., priority 2017, dated 2021):

Biological target: MAGL (Homo sapiens (Human), UniProt Q99685)
Test: In vitro competitive activity-based protein profiling (human prefrontal cortex membrane fractions, FP-Rh probe), MAGL band
Settings: read-out: MAGL IC50 (μM) (human); human prefrontal cortex membrane fractions
Description: Biological Evaluation In Vitro Competitive Activity-Based Protein Profiling.
Proteomes (mouse brain membrane fraction for mouse assays; human prefrontal cortex membrane fractions for human assays) (50 mL, 1.0 mg/mL total protein concentration) were preincubated with varying concentrations of inhibitors at 37° C. After 30 min, FP-Rh (1.0 mL, 50 mM in DMSO) was added and the mixture was incubated for another 30 min at 37° C. Reactions were quenched with SDS loading buffer (15 μL-4×) and run on SDS-PAGE.

Chain of MAGL (Q99685 whole entry): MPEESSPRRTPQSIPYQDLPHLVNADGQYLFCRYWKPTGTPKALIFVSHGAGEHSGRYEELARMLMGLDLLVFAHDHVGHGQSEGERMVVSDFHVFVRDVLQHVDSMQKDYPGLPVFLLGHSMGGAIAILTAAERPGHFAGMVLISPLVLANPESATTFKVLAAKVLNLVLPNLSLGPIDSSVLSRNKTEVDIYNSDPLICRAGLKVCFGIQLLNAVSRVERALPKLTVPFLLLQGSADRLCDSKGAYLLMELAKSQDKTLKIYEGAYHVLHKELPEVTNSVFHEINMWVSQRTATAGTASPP

Compound	IC50 [µM]
O=C(O)c1ccn(C(=O)N2C[C@H]3C[C@H](Oc4cc(Cl)cc(Cl)c4)C[C@H]3C2)n1 [Example 230, 1-(trans-5-(3,5-dichlorophenoxy)-octahydrocyclopenta-[c]pyrrole-2-carbonyl)-1H-pyrazole-3-carboxylic acid]	< 0.1
CC(C)(O)COc1cccc(O[C@H]2C[C@@H]3CN(C(=O)n4ccc(C(=O)O)n4)C[C@@H]3C2)c1Cl [Example 451, 1-(trans-5-(2-chloro-3-(2-hydroxy-2-methylpropoxy)-phenoxy)-octahydrocyclopenta-[c]pyrrole-2-carbonyl)-1H-pyrazole-3-carboxylic acid]	< 0.1
Cc1ccc(COC2CCN(C(=O)n3ccc(C(=O)O)n3)CC2)cc1C(F)(F)F [Example 236, 1-(4-((4-methyl-3-(trifluoromethyl)-benzyl)oxy)-piperidine-1-carbonyl)-1H-pyrazole-3-carboxylic acid]	< 0.1
O=C(O)c1nn(C(=O)N2CCN(Cc3cc(Cl)cc(-c4cncnc4)c3)CC2)cc1Cl [Example 323, 4-chloro-1-(4-(3-chloro-5-(pyrimidin-5-yl)benzyl)-piperazine-1-carbonyl)-1H-pyrazole-3-carboxylic acid]	< 0.1
CC(C)(O)COc1cccc(CN2CCN(C(=O)n3ccc(C(=O)O)n3)CC2)c1Cl [Example 213, 1-(4-(2-chloro-3-(2-hydroxy-2-methylpropoxy)-benzyl)piperazine-1-carbonyl)-1H-pyrazole-3-carboxylic acid]	< 0.1
O=C(O)c1nn(C(=O)N2CCN(Cc3cc(F)cc(Oc4ccc(Cl)cc4)c3)CC2)cc1Cl [Example 378, 4-chloro-1-(4-(3-(4-chlorophenoxy)-5-fluorobenzyl)-piperazine-1-carbonyl)-1H-pyrazole-3-carboxylic acid]	< 0.1
O=C(O)c1ccn(C(=O)N2CCN(Cc3cccc(C(F)(F)F)c3N3CCOCC3)CC2)n1 [Example 453, 1-(4-(2-morpholino-3-(trifluoromethyl)-benzyl)-piperazine-1-carbonyl)-1H-pyrazole-3-carboxylic acid]	< 0.1
CN(Cc1cc(N2CCCC2)cc(C(F)(F)F)c1)C1(C)CCN(C(=O)n2ccc(C(=O)O)n2)CC1 [Example 381, 1-(4-methyl-4-(methyl(3-(pyrrolidin-1-yl)-5-(trifluoromethyl)-benzyl)amino)-piperidine-1-carbonyl)-1H-pyrazole-3-carboxylic acid]	< 0.1
C[C@H]1CN(Cc2cccc(OCC(C)(C)O)c2Cl)CCN1C(=O)n1ccc(C(N)=O)n1 [Example 450, (S)-1-(4-(2-chloro-3-(2-hydroxy-2-methylpropoxy)-benzyl)-2-methylpiperazine-1-carbonyl)-1H-pyrazole-3-carboxamide]	< 0.1
O=C(O)c1ccn(C(=O)N2CCC3(CCN(Cc4ccc(C(F)(F)F)cc4Cl)C3)CC2)n1 [Example 77, 1-(2-(2-chloro-4-(trifluoromethyl)-benzyl)-2,8-diazaspiro[4.5]-decane-8-carbonyl)-1H-pyrazole-3-carboxylic acid]	< 0.1
O=C(O)c1ccn(C(=O)N2CCN(Cc3cc(Cl)cc(-c4cncnc4)c3)CC2)n1 [Example 269, 1-(4-(3-chloro-5-(pyrimidin-5-yl)benzyl)-piperazine-1-carbonyl)-1H-pyrazole-3-carboxylic acid]	< 0.1
NC(=O)c1ccn(C(=O)N2CCC3(CCN(Cc4cc(Cl)ccc4Cl)C3)C2)n1 (stereo not shown) [Example 426, 1-(7-(2,5-dichlorobenzyl)-2,7-diazaspiro[4.4-]-nonane-2-carbonyl)-1H-pyrazole-3-carboxamide]	< 0.1
CN(Cc1cccc(C(F)(F)F)c1)C1(C)CCN(C(=O)n2ccc(C(N)=O)n2)CC1 [Example 258]	< 0.1

Continued, values first:

IC50 [µM]	Compound
< 0.1	O=C(O)c1ccn(C(=O)N2CCC3(CCN(Cc4cc(Cl)cc(Cl)c4)C3)CC2)n1 [Example 162, 1-(2-(3,5-dichlorobenzyl)-2,8-diazaspiro[4.5]-decane-8-carbonyl)-1H-pyrazole-3-carboxylic acid]
< 0.1	O=C(O)c1ccn(C(=O)N2CCC(OCc3cc(Cl)cc(C(F)(F)F)c3)CC2)n1 [Example 275, 1-(4-((3-chloro-5-(trifluoromethyl)-benzyl)oxy)-piperidine-1-carbonyl)-1H-pyrazole-3-carboxylic acid]
< 0.1	O=C(O)c1ccn(C(=O)N2C[C@H]3C[C@H](Oc4ccc(Cl)c(-c5nccs5)c4)C[C@H]3C2)n1 [Example 318, 1-(trans-5-(4-chloro-3-(thiazol-2-yl)phenoxy)-octahydrocyclopenta-[c]pyrrole-2-carbonyl)-1H-pyrazole-3-carboxylic acid]
< 0.1	O=C(O)c1ccn(C(=O)N2CCC3(CCN(Cc4cccc(Cl)c4Cl)C3)CC2)n1 [Example 286, 1-(2-(2,3-dichlorobenzyl)-2,8-diazaspiro[4.5]-decane-8-carbonyl)-1H-pyrazole-3-carboxylic acid]
< 0.1	C[C@H]1CN(Cc2cccc(Oc3cc(C(F)(F)F)ccn3)c2)CCN1C(=O)n1ccc(C(=O)O)n1 [Example 373, (S)-1-(2-methyl-4-(3-((4-(trifluoromethyl)-pyridin-2-yl)oxy)benzyl)-piperazine-1-carbonyl)-1H-pyrazole-3-carboxylic acid]
< 0.1	O=C(O)c1ccn(C(=O)N2CCN(Cc3cccc(Oc4cnccc4C(F)(F)F)c3)CC2)n1 [Example 352, 1-(4-(3-((4-(trifluoromethyl)-pyridin-3-yl)oxy)-benzyl)-piperazine-1-carbonyl)-1H-pyrazole-3-carboxylic acid]
< 0.1	O=C(O)c1ccn(C(=O)N2C[C@H]3C[C@H](Oc4cc(F)cc(Cl)c4)C[C@H]3C2)n1 [Example 222, 1-(trans-5-(3-chloro-5-fluorophenoxy)-octahydrocyclopenta-[c]pyrrole-2-carbonyl)-1H-pyrazole-3-carboxylic acid]
< 0.1	O=C(O)c1ccn(C(=O)N2CCN(Cc3cc(Cl)cc(Oc4ccc(Cl)cc4)c3)CC2)n1 [Example 19, 1-(4-(3-Chloro-5-(4-chlorophenoxy)benzyl)piperazine-1-carbonyl)-1H-pyrazole-3-carboxylic Acid]
< 0.1	O=C(O)c1ccn(C(=O)N2CCN(Cc3ccc(C(F)(F)F)cc3N3CCCCC3)CC2)n1 [Example 100, 1-(4-(2-(piperidin-1-yl)-4-(trifluoromethyl)-benzyl)-piperazine-1-carbonyl)-1H-pyrazole-3-carboxylic acid]
< 0.1	C[C@@H]1CN(Cc2cc(F)cc(Oc3ccc(Cl)cc3)c2)CCN1C(=O)n1ccc(C(=O)O)n1 [Example 348, (R)-1-(4-(3-(4-chlorophenoxy)-5-fluorobenzyl)-2-methylpiperazine-1-carbonyl)-1H-pyrazole-3-carboxylic acid]
< 0.1	CNC(=O)c1ccn(C(=O)N2CC3CN(Cc4ccc(Cl)cc4)CC3C2)n1 (stereo not shown) [Example 424, 1-(5-(4-chlorobenzyl)-octahydropyrrolo-[3,4-c]pyrrole-2-carbonyl)-N-methyl-1H-pyrazole-3-carboxamide]
< 0.1	O=C(O)c1ccn(C(=O)N2CCN(Cc3ccc(C(F)(F)F)cc3N3CCCC3)CC2)n1 [Example 83, 1-(4-(2-(pyrrolidin-1-yl)-4-(trifluoromethyl)-benzyl)-piperazine-1-carbonyl)-1H-pyrazole-3-carboxylic acid]
